One block for each compound: values may come before it.
Test system: Dkk1-LRP5-TCF-Luciferase
Assay: Functional Dkk1-LRP5-TCF-Luciferase Assay in U2OS Cells
Settings: for fold induction at 20 µM / EC50 / fold induction at 2 µM: Homo sapiens, U2OS; for fold induction at 20 µM: read-out: C = TCF ACTIVITY/DMSO CONTROL Fold induction @ 20.0 uM, 20.0 uM compound; for A = MAX FOLD Induction/DMSO CONTROL: maximum fold induction over DMSO control; for fold induction at 2 µM: read-out: B = TCF ACTIVITY/DMSO CONTROL Fold induction @ 2.0 uM, 2.0 uM compound
Protocol: Biological Evaluation—Functional Dkk1-LRP5-TCF-Luciferase Assay in U2OS Cells
Frozen U2OS-Dkk1-HTS Reporter cells generation: U2OS Human Bone derived cells (Osteosarcoma) are grown in McCoy's 5A Medium (Modified), with L -glutamine (GIBCO Cat No. 16600-082)+1% Pen-Strep+5% FBS) plated at 1×10^7 cells/T175 cm flask. The next day, the cells are co-transfected overnight with the following plasmids: (a) Test reporter (16×TCF-TK-FireFly-Luci), (b) Internal Control Reporter (TK-Renilla-Luci), (c) Wnt3a and (d) Dkk1. GIBCO's Lipofectamine 2000 and OptiMEM are used for the transfection. After a minimum of 4 hr of transfection at 37° C., the plasmid-transfected cells are trypsinized, counted, and suspended in freezing medium (95% FBS+5% DMSO). The reporter cells are frozen at 1×10^7/ml concentrations, aliquoted into 0.5 ml or 2.5 ml/tube and stored at 70° C.
The following day, test compounds are added under HTS setup by Plate Track into 384 well plates (white, TC treated, Falcon plate) such that the final concentration of the compounds in 20 μL/well cell will be 5 μg/ml (final concentration of DMSO=0.25% and final compound concentration=20 μM). Vials of frozen reporter cells are thawed by warming the vial in a 37° C. water bath for 60-120 seconds with some shaking until the cells formed a suspension. The thawed cells are transferred into a cold 50 ml (or larger) tube and mixed well by gentle pipetting. The appropriate amount of cold Phenol Red Free RPMI medium-1640 (GIBCO, Cat #11835-030) with L-glutamine is added, both with ˜5% FBS (GIBCO-BRL, Cat. #16000-044), so that 20 μl of the final cell suspension will contain ˜5,000 cells. The cell dilution is done such that the final concentration of FBS is ˜5%.
Diluted cells (20 μl) are added into each well in a 384 well plate. The plate is incubated at 37° C. under 5% CO2 for ˜20 h. Bright-Glo substrate, 2.5 μl/well is added, and the Fire Fly Luciferase is measured using VLUX (60 second exposure) immediately after the substrate is added. Test compounds are dissolved in DMSO (100%) and added to specified wells. Raw luciferase signal data obtained as relative luminescence units (RLUs) for the test compounds are normalized to the signal of the mean of the sample reporter cell plate with DMSO.

A = MAX FOLD Induction/DMSO CONTROL: 1.340 fold
SMILES: O=C(N1CCOCC1)N1CC[C@@H](Nc2nccc(-c3ccc4ccccc4c3)n2)C1 [N-[(3R)-1-(morpholin-4-ylcarbonyl)pyrrolidin-3-yl]-4-(2-naphthyl)pyrimidin-2-amine]
fold induction at 20 µM: 2.35

EC50: 14.2 µM | A = MAX FOLD Induction/DMSO CONTROL: 2.980 fold
SMILES: CC(=O)N1CC[C@@H](Nc2nccc(-c3ccc4ccccc4c3)n2)C1 [N-[(3R)-1-acetylpyrrolidin-3-yl]-4-(2-naphthyl)pyrimidin-2-amine]
fold induction at 2 µM: 1.21 | fold induction at 20 µM: 2.06

SMILES: O=C(c1ccccc1)N1CC[C@@H](Nc2nccc(-c3ccc4ccccc4c3)n2)C1 [N-[(3R)-1-benzoylpyrrolidin-3-yl]-4-(2-naphthyl)pyrimidin-2-amine]
fold induction at 2 µM: 1.84

EC50: 2.9 µM | A = MAX FOLD Induction/DMSO CONTROL: 2.585 fold
SMILES: CS(=O)(=O)N1CC[C@H](Nc2nccc(-c3ccc4ccccc4c3)n2)C1 [N-[(3S)-1-(methylsulfonyl)pyrrolidin-3-yl]-4-(2-naphthyl)pyrimidin-2-amine]
fold induction at 2 µM: 1.41 | fold induction at 20 µM: 2.26

SMILES: O=C(N1CCOCC1)N1CC[C@H](Nc2nccc(-c3ccc4ccccc4c3)n2)C1 [N-[(3S)-1-(morpholin-4-ylcarbonyl)pyrrolidin-3-yl]-4-(2-naphthyl)pyrimidin-2-amine]
fold induction at 2 µM: 1.12 | fold induction at 20 µM: 1.94

SMILES: CC(=O)N1CC[C@H](Nc2nccc(-c3ccc4ccccc4c3)n2)C1 [N-[(3S)-1-acetylpyrrolidin-3-yl]-4-(2-naphthyl)pyrimidin-2-amine]
fold induction at 2 µM: 1.15 | fold induction at 20 µM: 1.66

SMILES: O=C(c1ccccc1)N1CC[C@H](Nc2nccc(-c3ccc4ccccc4c3)n2)C1 [N-[(3S)-1-benzoylpyrrolidin-3-yl]-4-(2-naphthyl)pyrimidin-2-amine]
fold induction at 2 µM: 1.23

SMILES: CN(c1nccc(-c2ccc3ccccc3c2)n1)[C@H]1CC[C@@H](CN)CC1 [N-[cis-4-(aminomethyl)cyclohexyl]-N-methyl-4-(2-naphthyl)pyrimidin-2-amine]
fold induction at 2 µM: 2.7

SMILES: CN(c1nccc(-c2ccc3ccccc3c2)n1)[C@H]1CC[C@H](CN)CC1 [N-[trans-4-(aminomethyl)cyclohexyl]-N-methyl-4-(2-naphthyl)pyrimidin-2-amine]
fold induction at 2 µM: 1.4

SMILES: c1ccc(CNc2nccc(-c3ccc4ccccc4c3)n2)cc1 [N-benzyl-4-(2-naphthyl)pyrimidin-2-amine]
fold induction at 2 µM: 1.71

SMILES: CN(CCN(C)[C@@H]1CCN(c2nccc(-c3ccc4ccccc4c3)n2)C1)Cc1ccccc1 [N-benzyl-N,N′-dimethyl-N′-{(3R)-1-[4-(2-naphthyl)pyrimidin-2-yl]pyrrolidin-3-yl}ethane-1,2-diamine]
fold induction at 2 µM: 1.6

SMILES: CCCCNc1nccc(-c2ccc3ccccc3c2)n1 [N-butyl-4-(2-naphthyl)pyrimidin-2-amine]
fold induction at 2 µM: 1.51

A = MAX FOLD Induction/DMSO CONTROL: 1.230 fold
SMILES: c1ccc2cc(-c3ccnc(NC4CCCCC4)n3)ccc2c1 [N-cyclohexyl-4-(2-naphthyl)pyrimidin-2-amine]
fold induction at 2 µM: 1.21 | fold induction at 20 µM: 1.51

A = MAX FOLD Induction/DMSO CONTROL: 1.230 fold
SMILES: O=C(NC1CCCCC1)N1CCC(CNc2nccc(-c3ccc4ccccc4c3)n2)CC1 [N-cyclohexyl-4-({[4-(2-naphthyl)pyrimidin-2-yl]amino}methyl)piperidine-1-carboxamide]
fold induction at 2 µM: 1.81 | fold induction at 20 µM: 0.067

SMILES: O=C(NC1CCCCC1)N1CCC(Nc2nccc(-c3ccc4ccccc4c3)n2)CC1 [N-cyclohexyl-4-{[4-(2-naphthyl)pyrimidin-2-yl]amino}piperidine-1-carboxamide]
fold induction at 20 µM: 1.45

SMILES: c1ccc2cc(-c3ccnc(NC4CCCC4)n3)ccc2c1 [N-cyclopentyl-4-(2-naphthyl)pyrimidin-2-amine]
fold induction at 2 µM: 1.95 | fold induction at 20 µM: 0.83

SMILES: CCNC(=O)N1CC(CNc2nccc(-c3ccc4ccccc4c3)n2)C1 [N-ethyl-3-({[4-(2-naphthyl)pyrimidin-2-yl]amino}methyl)azetidine-1-carboxamide]
fold induction at 2 µM: 1.57

SMILES: CCNC(=O)N1CCC(CNc2nccc(-c3ccc4ccccc4c3)n2)CC1 [N-ethyl-4-({[4-(2-naphthyl)pyrimidin-2-yl]amino}methyl)piperidine-1-carboxamide]
fold induction at 2 µM: 1.35 | fold induction at 20 µM: 1.3

EC50: 12.7 µM | A = MAX FOLD Induction/DMSO CONTROL: 1.640 fold
SMILES: CCNC(=O)N1CCCN(c2nccc(-c3ccc4ccccc4c3)n2)CC1 [N-ethyl-4-[4-(2-naphthyl)pyrimidin-2-yl]-1,4-diazepane-1-carboxamide]
fold induction at 20 µM: 2.58

EC50: 18.2 µM | A = MAX FOLD Induction/DMSO CONTROL: 2.280 fold
SMILES: CCNC(=O)N1CCC(Nc2nccc(-c3ccc4ccccc4c3)n2)CC1 [N-ethyl-4-{[4-(2-naphthyl)pyrimidin-2-yl]amino}piperidine-1-carboxamide]
fold induction at 2 µM: 1.14 | fold induction at 20 µM: 1.6

SMILES: CCNC(=O)N1CCC(N(C)c2nccc(-c3ccc4ccccc4c3)n2)CC1 [N-ethyl-4-{methyl[4-(2-naphthyl)pyrimidin-2-yl]amino}piperidine-1-carboxamide]
fold induction at 2 µM: 1.2 | fold induction at 20 µM: 1.45

SMILES: CCN(C)CCN(C)[C@@H]1CCN(c2nccc(-c3ccc4ccccc4c3)n2)C1 [N-ethyl-N,N′-dimethyl-N′-{(3R)-1-[4-(2-naphthyl)pyrimidin-2-yl]pyrrolidin-3-yl}ethane-1,2-diamine]
fold induction at 2 µM: 1.8

SMILES: CCN(CCO)C(=O)[C@@H]1CCCN1c1nccc(-c2ccc3ccccc3c2)n1 [N-ethyl-N-(2-hydroxyethyl)-1-[4-(2-naphthyl)pyrimidin-2-yl]-L-prolinamide]
fold induction at 2 µM: 1.03 | fold induction at 20 µM: 1.63

SMILES: CCN(CC)CC1CCN(c2nccc(-c3ccc4ccccc4c3)n2)CC1 [N-ethyl-N-({1-[4-(2-naphthyl)pyrimidin-2-yl]piperidin-4-yl}methyl)ethanamine]
fold induction at 2 µM: 1.14 | fold induction at 20 µM: 0.02

SMILES: CCN(CC)CC1CCN(c2nccc(-c3ccc4ccccc4c3)n2)C1 (stereo not drawn) [N-ethyl-N-({1-[4-(2-naphthyl)pyrimidin-2-yl]pyrrolidin-3-yl}methyl)ethanamine]
fold induction at 2 µM: 1.58

SMILES: CCNC(=O)NCCC1CCN(c2nccc(-c3ccc4ccccc4c3)n2)CC1 [N-ethyl-N′-(2-{1-[4-(2-naphthyl)pyrimidin-2-yl]piperidin-4-yl}ethyl)urea]
fold induction at 2 µM: 1.78 | fold induction at 20 µM: 1.87

SMILES: CCNC(=O)NCCN1CCN(c2nccc(-c3ccc4ccccc4c3)n2)CC1 [N-ethyl-N′-(2-{4-[4-(2-naphthyl)pyrimidin-2-yl]piperazin-1-yl}ethyl)urea]
fold induction at 2 µM: 1.09 | fold induction at 20 µM: 0.28

A = MAX FOLD Induction/DMSO CONTROL: 2.740 fold
SMILES: CCNC(=O)N[C@H]1CC[C@H](Nc2nccc(-c3ccc4ccccc4c3)n2)CC1 [N-ethyl-N′-(trans-4-{[4-(2-naphthyl)pyrimidin-2-yl]amino}cyclohexyl)urea]
fold induction at 2 µM: 2.84 | fold induction at 20 µM: 2.35

SMILES: CCNC(=O)NCC1CN(c2nccc(-c3ccc4ccccc4c3)n2)C1 [N-ethyl-N′-({1-[4-(2-naphthyl)pyrimidin-2-yl]azetidin-3-yl}methyl)urea]
fold induction at 20 µM: 1.06

SMILES: CCNC(=O)NCC1CCN(c2nccc(-c3ccc4ccccc4c3)n2)CC1 [N-ethyl-N′-({1-[4-(2-naphthyl)pyrimidin-2-yl]piperidin-4-yl}methyl)urea]
fold induction at 2 µM: 1.7 | fold induction at 20 µM: 1.34

SMILES: CCNC(=O)NCC1CCN(c2nccc(-c3ccc4ccccc4c3)n2)C1 (stereo not drawn) [N-ethyl-N′-({1-[4-(2-naphthyl)pyrimidin-2-yl]pyrrolidin-3-yl}methyl)urea]
fold induction at 2 µM: 0.93 | fold induction at 20 µM: 1.2

A = MAX FOLD Induction/DMSO CONTROL: 1.320 fold
SMILES: CCNC(=O)NC1CCCN(c2nccc(-c3ccc4ccccc4c3)n2)CC1 (stereo not drawn) [N-ethyl-N′-{1-[4-(2-naphthyl)pyrimidin-2-yl]azepan-4-yl}urea]
fold induction at 2 µM: 2.33 | fold induction at 20 µM: 2.56

SMILES: CCNC(=O)N[C@H]1CCN(c2nccc(-c3ccc4ccccc4c3)n2)C1 [N-ethyl-N′-{(3S)-1-[4-(2-naphthyl)pyrimidin-2-yl]pyrrolidin-3-yl}urea]
fold induction at 2 µM: 1.03 | fold induction at 20 µM: 0.6

SMILES: CC(C)CNc1nccc(-c2ccc3ccccc3c2)n1 [N-isobutyl-4-(2-naphthyl)pyrimidin-2-amine]
fold induction at 2 µM: 1.77

SMILES: CC(C)Nc1nccc(-c2ccc3ccccc3c2)n1 [N-isopropyl-4-(2-naphthyl)pyrimidin-2-amine]
fold induction at 2 µM: 1.64

SMILES: CC(C)NC(=O)N1CCC(CNc2nccc(-c3ccc4ccccc4c3)n2)CC1 [N-isopropyl-4-({[4-(2-naphthyl)pyrimidin-2-yl]amino}methyl)piperidine-1-carboxamide]
fold induction at 2 µM: 1.31 | fold induction at 20 µM: 0.54

SMILES: CC(C)NC(=O)N1CCC(Nc2nccc(-c3ccc4ccccc4c3)n2)CC1 [N-isopropyl-4-{[4-(2-naphthyl)pyrimidin-2-yl]amino}piperidine-1-carboxamide]
fold induction at 2 µM: 1.07 | fold induction at 20 µM: 1.37

SMILES: CC(C)N(C)CCN(C)[C@@H]1CCN(c2nccc(-c3ccc4ccccc4c3)n2)C1 [N-isopropyl-N,N′-dimethyl-N′-{(3R)-1-[4-(2-naphthyl)pyrimidin-2-yl]pyrrolidin-3-yl}ethane-1,2-diamine]
fold induction at 2 µM: 2.2

SMILES: CC(C)NC(=O)NCCC1CCN(c2nccc(-c3ccc4ccccc4c3)n2)CC1 [N-isopropyl-N′-(2-{1-[4-(2-naphthyl)pyrimidin-2-yl]piperidin-4-yl}ethyl)urea]
fold induction at 2 µM: 1.46 | fold induction at 20 µM: 1.58

SMILES: CC(C)NC(=O)NCCN1CCN(c2nccc(-c3ccc4ccccc4c3)n2)CC1 [N-isopropyl-N′-(2-{4-[4-(2-naphthyl)pyrimidin-2-yl]piperazin-1-yl}ethyl)urea]
fold induction at 2 µM: 1.06 | fold induction at 20 µM: 0.1

SMILES: CC(C)NC(=O)N[C@@H]1CCN(c2nccc(-c3ccc4ccccc4c3)n2)C1 [N-isopropyl-N′-{(3R)-1-[4-(2-naphthyl)pyrimidin-2-yl]pyrrolidin-3-yl}urea]
fold induction at 2 µM: 1.19 | fold induction at 20 µM: 1.09
